In one assay the target is T1, JAK3 (Homo sapiens, UniProt P52333).
T1 sequence (P52333 1-1124): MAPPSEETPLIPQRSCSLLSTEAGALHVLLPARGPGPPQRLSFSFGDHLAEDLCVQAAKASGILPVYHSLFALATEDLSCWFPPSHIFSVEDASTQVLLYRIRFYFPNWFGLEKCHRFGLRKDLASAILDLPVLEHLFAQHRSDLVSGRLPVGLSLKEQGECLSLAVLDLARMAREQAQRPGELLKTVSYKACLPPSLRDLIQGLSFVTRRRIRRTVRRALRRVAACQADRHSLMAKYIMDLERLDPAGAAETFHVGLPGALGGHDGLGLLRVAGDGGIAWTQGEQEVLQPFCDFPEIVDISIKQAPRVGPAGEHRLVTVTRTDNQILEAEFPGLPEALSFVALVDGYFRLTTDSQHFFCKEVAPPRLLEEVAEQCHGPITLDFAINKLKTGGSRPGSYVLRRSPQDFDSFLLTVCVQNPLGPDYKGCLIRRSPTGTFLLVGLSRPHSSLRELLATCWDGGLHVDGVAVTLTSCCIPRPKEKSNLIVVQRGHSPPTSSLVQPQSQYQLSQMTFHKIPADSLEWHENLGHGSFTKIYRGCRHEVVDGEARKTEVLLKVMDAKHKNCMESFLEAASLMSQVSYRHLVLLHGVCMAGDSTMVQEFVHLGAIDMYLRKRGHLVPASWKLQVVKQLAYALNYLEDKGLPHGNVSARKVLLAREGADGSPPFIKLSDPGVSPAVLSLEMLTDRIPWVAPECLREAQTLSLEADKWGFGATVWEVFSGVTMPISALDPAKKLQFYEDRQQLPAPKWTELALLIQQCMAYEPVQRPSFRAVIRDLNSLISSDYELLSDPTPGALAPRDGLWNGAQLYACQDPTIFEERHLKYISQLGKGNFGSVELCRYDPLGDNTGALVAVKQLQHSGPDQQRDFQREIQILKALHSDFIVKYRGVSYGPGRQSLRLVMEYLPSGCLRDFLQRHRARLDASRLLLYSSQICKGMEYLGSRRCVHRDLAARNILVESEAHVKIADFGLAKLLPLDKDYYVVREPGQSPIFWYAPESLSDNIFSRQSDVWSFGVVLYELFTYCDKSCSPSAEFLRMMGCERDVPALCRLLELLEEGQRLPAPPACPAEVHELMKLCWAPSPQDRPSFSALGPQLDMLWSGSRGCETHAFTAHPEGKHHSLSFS
Description: Inhibition of a panel of kinases, in vitro HotSpot kinase assay: JAK3. The conditions noted are these: D-compounds panel data; 1 μM ATP; read-out: IC50 JAK3. Type of assay: biochemical.

For a further assay, the target named is EGFR (Homo sapiens, UniProt P00533). Description: Inhibition of a panel of kinases, in vitro HotSpot kinase assay: EGFR. Type of assay: biochemical. Particulars: D-compounds panel data; 1 μM ATP. The method, then: The degree of inhibition of a panel of kinases is determined using the in vitro HotSpot kinase assay (purified enzymes, ^33P-ATP, an appropriate substrate and 1 μM ATP).

Data on 20 molecules can be found in US20210070748A1, “INHIBITORS OF BRUTONS TYROSINE KINASE” (Pharmacyclics LLC, priority 2015, published 2021).

pIC50: −log10 of the molar value. Where only a bound is given, the exact number is not on record here.

Sequence of EGFR (P00533 25-1210): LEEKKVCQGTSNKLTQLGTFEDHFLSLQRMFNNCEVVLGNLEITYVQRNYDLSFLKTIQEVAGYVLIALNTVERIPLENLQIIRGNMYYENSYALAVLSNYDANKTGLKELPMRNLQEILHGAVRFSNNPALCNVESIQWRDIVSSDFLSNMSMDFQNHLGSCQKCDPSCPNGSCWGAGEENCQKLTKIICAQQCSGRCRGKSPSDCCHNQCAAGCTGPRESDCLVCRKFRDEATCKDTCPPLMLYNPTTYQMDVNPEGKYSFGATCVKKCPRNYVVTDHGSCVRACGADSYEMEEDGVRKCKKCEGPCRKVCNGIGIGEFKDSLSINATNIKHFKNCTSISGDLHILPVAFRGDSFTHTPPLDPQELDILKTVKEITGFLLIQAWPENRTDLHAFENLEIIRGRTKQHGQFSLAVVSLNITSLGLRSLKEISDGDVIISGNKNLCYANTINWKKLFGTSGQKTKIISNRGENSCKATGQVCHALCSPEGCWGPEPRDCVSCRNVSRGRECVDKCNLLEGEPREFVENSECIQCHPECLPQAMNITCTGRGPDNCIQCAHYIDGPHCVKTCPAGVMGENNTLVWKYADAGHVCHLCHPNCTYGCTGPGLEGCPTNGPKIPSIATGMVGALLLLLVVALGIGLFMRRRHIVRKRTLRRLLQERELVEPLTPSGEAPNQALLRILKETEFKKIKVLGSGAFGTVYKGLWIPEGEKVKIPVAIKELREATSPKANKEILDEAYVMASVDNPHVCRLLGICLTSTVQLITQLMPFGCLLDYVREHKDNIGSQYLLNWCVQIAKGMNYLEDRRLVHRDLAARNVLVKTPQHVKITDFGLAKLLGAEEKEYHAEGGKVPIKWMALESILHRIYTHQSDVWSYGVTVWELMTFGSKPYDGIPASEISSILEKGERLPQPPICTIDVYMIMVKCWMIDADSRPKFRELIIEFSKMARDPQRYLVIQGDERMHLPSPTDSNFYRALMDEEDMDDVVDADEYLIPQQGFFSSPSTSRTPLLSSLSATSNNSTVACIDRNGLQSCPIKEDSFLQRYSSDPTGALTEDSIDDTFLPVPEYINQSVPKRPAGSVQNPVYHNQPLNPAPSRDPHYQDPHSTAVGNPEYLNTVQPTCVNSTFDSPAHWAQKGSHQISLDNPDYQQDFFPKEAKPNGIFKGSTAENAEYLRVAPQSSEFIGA

Consider `CCn1cc(Nc2nc(N3CCC[C@@H](NC(=O)c4ccc(C5CC5)cc4)[C@H]3C)cnc2C(N)=O)cn1` [Example D-273, 5-[(2R,3R)-3-(4-cyclopropylbenzamido)-2-methylpiperidin-1-yl]-3-[(1-ethyl-1H-pyrazol-4-yl)amino]pyrazine-2-carboxamide], for which the figures for the pIC50 on JAK3 and against EGFR were 5.00 to 6.00 and 6.00 to 7.00, respectively.

As to `C[C@@H]1[C@H](NC(=O)c2cc(C(C)(C)C)n[nH]2)CCCN1c1cnc(C(N)=O)c(Nc2cnn(C)c2)n1` [Example D-244, 5-[(2R,3R)-3-(3-tert-butyl-1H-pyrazole-5-amido)-2-methylpiperidin-1-yl]-3-[(1-methyl-1H-pyrazol-4-yl)amino]pyrazine-2-carboxamide], the pIC50 (usually −log10 of the IC50, conventionally taken in molar units) on JAK3 is 6.00 to 7.00; against EGFR it was 5.00 to 6.00.

Turning to `C[C@@H]1[C@H](NC(=O)c2ccc(C3CC3)cc2)CCCN1c1cnc(C(N)=O)c(Nc2cc(C3CCOCC3)ns2)n1` [Example D-310, 5-[(2R,3R)-3-(4-cyclopropylbenzamido)-2-methylpiperidin-1-yl]-3-{[3-(oxan-4-yl)-1,2-thiazol-5-yl]amino}pyrazine-2-carboxamide], the negative-log IC50 (pIC50) at JAK3 is 6.00 to 7.00; at EGFR, 5.00 to 6.00.

On to `C[C@@H]1[C@H](NC(=O)c2ccc3c(c2)CCC(C)(C)O3)CCCN1c1cnc(C(N)=O)c(Nc2cnn(C)c2)n1` [Example D-258, 5-[(2R,3R)-3-(2,2-dimethyl-3,4-dihydro-2H-1-benzopyran-6-amido)-2-methylpiperidin-1-yl]-3-[(1-methyl-1H-pyrazol-4-yl)amino]pyrazine-2-carboxamide], for which the pIC50 at JAK3 and against EGFR was 5.00 to 6.00 each time.

Consider `C[C@@H]1[C@H](NC(=O)c2ccc(C(O)C(F)(F)F)cc2)CCCN1c1cnc(C(N)=O)c(Nc2cnn(C)c2)n1` (single isomer, unassigned) [Example D-250], for which the pIC50 on JAK3 and on EGFR was 6.00 to 7.00 each time.

Regarding `C[C@@H]1[C@H](NC(=O)N(C)C)CCCN1c1nnc(C(N)=O)c(Nc2cnn(C)c2)n1` [Example D-286, 3-[(2R,3R)-3-[(dimethylcarbamoyl)amino]-2-methylpiperidin-1-yl]-5-[(1-methyl-1H-pyrazol-4-yl)amino]-1,2,4-triazine-6-carboxamide], the pIC50 at JAK3 and at EGFR was 5.00 to 6.00 each time.

Turning to `C[C@@H]1[C@H](NC(=O)c2ccc(C3CC3)cc2C(F)(F)F)CCCN1c1cnc(C(N)=O)c(Nc2cnn(C)c2)n1` [Example D-25, 5-[(2R,3R)-3-[4-cyclopropyl-2-(trifluoromethyl)benzamido]-2-methylpiperidin-1-yl]-3-[(1-methyl-1H-pyrazol-4-yl)amino]pyrazine-2-carboxamide], the pIC50 at JAK3 and against EGFR was 5.00 to 6.00 in each case.

Take `COCCN(C)c1ccc(C(=O)N[C@@H]2CCCN(c3cnc(C(N)=O)c(Nc4cnn(C)c4)n3)[C@@H]2C)cc1` [Example D-248, 5-[(2R,3R)-3-{4-[(2-methoxyethyl)(methyl)amino]benzamido}-2-methylpiperidin-1-yl]-3-[(1-methyl-1H-pyrazol-4-yl)amino]pyrazine-2-carboxamide]: the negative-log IC50 (pIC50) on JAK3 and on EGFR was 6.00 to 7.00 each time.

Take `C[C@@H]1[C@H](NC(=O)c2ccc(C3CC3)cc2)CCCN1c1cnc(C(N)=O)c(Nc2ccc3c(c2)CCOC3)n1` [Example D-303, 5-[(2R,3R)-3-(4-cyclopropylbenzamido)-2-methylpiperidin-1-yl]-3-[(3,4-dihydro-1H-2-benzopyran-6-yl)amino]pyrazine-2-carboxamide]: the pIC50 on JAK3 and against EGFR was less than 5.00 each time.

As to `C[C@@H]1[C@H](NC(=O)c2ccc(C3CC3)cc2)CCCN1c1cnc(C(N)=O)c(Nc2cnn(C(F)F)c2)n1` [Example D-275, 5-[(2R,3R)-3-(4-cyclopropylbenzamido)-2-methylpiperidin-1-yl]-3-{[1-(difluoromethyl)-1H-pyrazol-4-yl]amino}pyrazine-2-carboxamide], the pIC50 at JAK3 and at EGFR was less than 5.00 each time.

Regarding `C[C@@H]1[C@H](NC(=O)c2ccc(C3CC3)cc2)CCCN1c1cnc(C(N)=O)c(Nc2ccc(C3CCN(C)CC3)cc2)n1` [Example D-301, 5-[(2R,3R)-3-(4-cyclopropylbenzamido)-2-methylpiperidin-1-yl]-3-{[4-(1-methylpiperidin-4-yl)phenyl]amino}pyrazine-2-carboxamide], the pIC50 is 5.00 to 6.00 on JAK3 and 6.00 to 7.00 against EGFR.

For the molecule `C[C@@H]1[C@H](NC(=O)N(C)C)CCCN1c1cnc(C(N)=O)c(Nc2ccc(N3CCC(F)(F)CC3)cc2)n1` [Example D-306, 3-{[4-(4,4-difluoropiperidin-1-yl)phenyl]amino}-5-[(2R,3R)-3-[(dimethylcarbamoyl)amino]-2-methylpiperidin-1-yl]pyrazine-2-carboxamide], the pIC50 on JAK3 and against EGFR was 5.00 to 6.00 throughout.

With `CC(=O)N1CCN(c2ccc(Nc3nc(N4CCC[C@@H](NC(=O)c5ccc(C6CC6)cc5)[C@H]4C)cnc3C(N)=O)cc2)CC1` [Example D-295, 3-{[4-(4-acetylpiperazin-1-yl)phenyl]amino}-5-[(2R,3R)-3-(4-cyclopropylbenzamido)-2-methylpiperidin-1-yl]pyrazine-2-carboxamide], the negative logarithm of the IC50 (pIC50) at JAK3 and against EGFR was 6.00 to 7.00 throughout.

Take `C[C@@H]1[C@H](NC(=O)c2ccc(C(C)(C)C)cc2)CCCN1c1cnc(C(N)=O)c(Nc2ccc(OC3CCN(C)CC3)cc2)n1` [Example D-291, 5-[(2R,3R)-3-(4-tert-butylbenzamido)-2-methylpiperidin-1-yl]-3-({4-[(1-methylpiperidin-4-yl)oxy]phenyl}amino)pyrazine-2-carboxamide]: the pIC50 at JAK3 was 5.00 to 6.00; against EGFR it was 6.00 to 7.00.

Take `C[C@@H]1[C@H](NC(=O)c2cc3n(n2)CCC3)CCCN1c1cnc(C(N)=O)c(Nc2cnn(C)c2)n1` [Example D-263, 3-[(1-methyl-1H-pyrazol-4-yl)amino]-5-[(2R,3R)-2-methyl-3-{4H,5H,6H-pyrrolo[1,2-b]pyrazole-2-amido}piperidin-1-yl]pyrazine-2-carboxamide]: the pIC50 was 5.00 to 6.00 at JAK3 and 6.00 to 7.00 against EGFR.

For the molecule `C[C@@H]1[C@H](NC(=O)c2ccc(C3CC3)cc2Cl)CCCN1c1cnc(C(N)=O)c(Nc2cnn(C)c2)n1` [Example D-20, 5-[(2R,3R)-3-(2-chloro-4-cyclopropylbenzamido)-2-methylpiperidin-1-yl]-3-[(1-methyl-1H-pyrazol-4-yl)amino]pyrazine-2-carboxamide], the negative logarithm of the IC50 (pIC50) at JAK3 and on EGFR was 5.00 to 6.00 in each case.

In the case of `C[C@@H]1[C@H](NC(=O)c2cc(C(C)(C)C)on2)CCCN1c1cnc(C(N)=O)c(Nc2cnn(C)c2)n1` [Example D-247, 5-[(2R,3R)-3-(5-tert-butyl-1,2-oxazole-3-amido)-2-methylpiperidin-1-yl]-3-[(1-methyl-1H-pyrazol-4-yl)amino]pyrazine-2-carboxamide], the pIC50 at JAK3 and at EGFR was 5.00 to 6.00 in each case.

As to `C[C@@H]1[C@H](NC(=O)N(C)C2CC2)CCCN1c1cnc(C(N)=O)c(Nc2cnn(C)c2)n1` [Example D-314, 5-[(2R,3R)-3-{[cyclopropyl(methyl)carbamoyl]amino}-2-methylpiperidin-1-yl]-3-[(1-methyl-1H-pyrazol-4-yl)amino]pyrazine-2-carboxamide], the pIC50 on JAK3 and at EGFR was 5.00 to 6.00 in each case.

As for `C[C@@H]1[C@H](NC(=O)c2ccc(C3CC3)cc2)CCCN1c1cnc(C(N)=O)c(Nc2cnn(C3CCC(F)(F)CC3)c2)n1` [Example D-307, 5-[(2R,3R)-3-(4-cyclopropylbenzamido)-2-methylpiperidin-1-yl]-3-{[1-(4,4-difluorocyclohexyl)-1H-pyrazol-4-yl]amino}pyrazine-2-carboxamide], the pIC50 on JAK3 and against EGFR was less than 5.00 each time.

Consider `C[C@@H]1[C@H](NC(=O)c2ccc3ncsc3c2)CCCN1c1cnc(C(N)=O)c(Nc2cnn(C)c2)n1` [Example D-243, N-[(2R,3R)-1-{5-carbamoyl-6-[(1-methyl-1H-pyrazol-4-yl)amino]pyrazin-2-yl}-2-methylpiperidin-3-yl]-1,3-benzothiazole-6-carboxamide], for which the results for the pIC50 at JAK3 and against EGFR were 6.00 to 7.00 and 5.00 to 6.00, respectively.
